Test results published in publication PMC8026785, “The pharmacokinetics of [^18F]UCB-H revisited in the healthy non-human primate brain” (EJNMMI Research, 2021).
Values joined by “and” are separate entries in the source; they are usually repeats but may differ in a detail not shown here. Identical values can stand only once.

Biological target: T1, SV2A (Macaca fascicularis, UniProt Q4R4X3)
T1 construct: The current study evaluates [^18F]UCB-H pharmacokinetics in healthy NHPs; from tissue; host or cells: brain of living healthy cynomolgus monkeys (in vivo PET)
Experiment: Brain PET kinetic modelling (1TCM, 2TCM, 2TCM-c, Logan), test-retest
Assay type: in vivo, cynomolgus monkeys (Macaca fascicularis)
Description: All four non-human primates (NHP) underwent a 2-h (2 h) test and retest PET scan; two NHP underwent an additional 4-h (4 h) retest PET scan. Three NHP underwent one 4-h (4 h) displacement PET scan. Arterial blood sampling was performed during test and retest scans with PET imaging spaced by at least 3 weeks between each scan. To this end, the femoral artery opposite to the saphenous vein used for radioligand injection was cannulated. For the 2-h (2 h) scans, we collected in total 28 blood samples of 1 mL: 16 samples during the first 5 min followed by […] every 5 min and […] every 10 min. For the 4 h scans, we collected an additional 6 samples every 20 min during the last two hours (34 samples in total). Larger samples (2 – 3 mL) were collected at 5, 15, 30, 60, 90, 120 min (2 h) and at 180, 240 min (4 h) for metabolite analysis. Displacement of [^18F]UCB-H was done by intravenous (IV) administration 90 min after [^18F]UCB-H injection of a bolus of 30 mg/kg LEV, or of 80 µg/kg (≈250 nmol/kg) or 5 mg/kg (≈15 µmol/kg) of cold [^19F]-UCB-H. Full experimental design of all NHP is outlined in Additional file 1: Table 1.
PET imaging was performed on the microPET FOCUS220 (Siemens) under standard anesthesia and monitoring procedures. Data acquisition started with the IV bolus injection of [^18F]UCB-H (32.9 ± 1.0 MBq/kg, 0.35 ± 0.07 µg/kg). Dynamic PET images were reconstructed using standard OSEM-2D algorithms while correcting for radioactive decay, scatter, attenuation and detectors inhomogeneity, which were measured prior to PET scanning using respectively ^57Co and ^68Ge external sources.
PET image analysis was performed using PMOD software version 3.8 (PMOD Technologies Ltd., Zurich, Suisse). After individual co-registration of PET-MR images, a cynomolgus atlas published by Ballanger and coworkers was normalized to PET images to extract time activity curves in different brain regions. Volumes of interest (VOI) were cerebral white matter (16.7 cm^3), striatum (0.24 cm^3), thalamus (0.89 cm^3), cerebellum (3.83 cm^3), frontal—(2.50 cm^3), parietal—(5.35 cm^3), and temporal (8.22 cm^3) cortex, and whole brain (72.2 cm^3) as a composite region of all regions in the atlas. [^18F]UCB-H pharmacokinetics were evaluated by analyzing the time activity curves of the test- and retest scans using 1- and 2-tissue compartment models (unconstrained and constrained with global K1/k2 coupled fit across all regions, further referred to as 2TCM and 2TCM-c), and Logan graphical analysis with a fixed t* at 60 min [33] using the arterial plasma input function corrected for radio-metabolites to derive the volume of distribution in each region. Percentage standard error (%SE) was estimated from the theoretical parameter covariance matrix. Only reliable estimates (%SE less than 25%) were included in the current analyses. For the three drug studies, percent displacement of the total activity in the whole brain was estimated relative to an average baseline constructed from the two 4 h baseline studies. Briefly, Standardized Uptake Value (SUV) time activity curves (TACs) were calculated for the two baseline and the three displacement studies. Then, each curve was normalized to the SUV at t = 90 min, corresponding to the timeframe immediately before the administration of the drugs in the displacement studies. Baseline curves were averaged and the percent displacement of total activity was calculated as (baseline-displacement)/baseline at a given time post drug administration (see “Results”).
Statistical analysis was performed using R software (version 3.3.1.). Plasma, intact parent fraction and time activity curves were statistically compared between subjects using a one-factor variance analysis. Absolute Test–Retest variability (aTRV) of PET quantification parameters was calculated as ABS(test—retest) / AVERAGE(test, retest). […]

[1] = White Matter, Retest, individual NHP
[2] = White Matter, Test, individual NHP

T1 sequence (Q4R4X3 whole entry): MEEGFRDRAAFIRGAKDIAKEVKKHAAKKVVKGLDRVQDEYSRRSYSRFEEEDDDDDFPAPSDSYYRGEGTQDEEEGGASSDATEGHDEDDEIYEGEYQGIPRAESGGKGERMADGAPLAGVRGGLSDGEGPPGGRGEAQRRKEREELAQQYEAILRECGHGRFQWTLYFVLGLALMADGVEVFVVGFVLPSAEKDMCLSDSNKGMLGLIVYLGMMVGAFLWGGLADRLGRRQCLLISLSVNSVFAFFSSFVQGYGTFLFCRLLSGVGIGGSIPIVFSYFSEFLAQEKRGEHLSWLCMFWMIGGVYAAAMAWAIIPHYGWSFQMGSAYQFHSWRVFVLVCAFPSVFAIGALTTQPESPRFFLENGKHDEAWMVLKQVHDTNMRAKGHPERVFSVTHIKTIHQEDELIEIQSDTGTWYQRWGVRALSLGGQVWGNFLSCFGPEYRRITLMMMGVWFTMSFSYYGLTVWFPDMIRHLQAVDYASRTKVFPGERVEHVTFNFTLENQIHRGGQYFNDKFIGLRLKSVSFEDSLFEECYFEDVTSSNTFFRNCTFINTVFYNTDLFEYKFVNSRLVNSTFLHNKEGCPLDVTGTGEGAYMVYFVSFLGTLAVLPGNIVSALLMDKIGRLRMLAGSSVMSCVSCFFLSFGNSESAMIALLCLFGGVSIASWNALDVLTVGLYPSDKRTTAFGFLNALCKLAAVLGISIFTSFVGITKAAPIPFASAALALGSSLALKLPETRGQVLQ

k3/k4 (2TCM-c) (Thalamus, Retest, individual NHP): 0.64 and 2.00 and 0.90 and 0.33
VT (1TCM) (Thalamus, Retest, mean): 13.4 mL/cm^3
VT (2TCM) (Thalamus, Retest, mean): 13.0 mL/cm^3
VT (2TCM-c) (Thalamus, Retest, mean): 14.2 mL/cm^3
VT (Logan (t* = 60)) (Thalamus, Retest, mean): 14.3 mL/cm^3
k3/k4 (BPND) (2TCM-c) (Thalamus, Retest, mean): 0.97
VT (2TCM) (Thalamus, Test, individual NHP): 13.65 ml/cm^3 and 17.60 ml/cm^3
k3/k4 (2TCM) (Thalamus, Test, individual NHP): 0.82
k3/k4 (2TCM-c) (Thalamus, Test, individual NHP): 1.00 and 1.56 and 1.18 and 0.38
VT (1TCM) (Thalamus, Test, mean): 13.3 mL/cm^3
VT (2TCM) (Thalamus, Test, mean): 15.6 mL/cm^3
VT (2TCM-c) (Thalamus, Test, mean): 15.0 mL/cm^3
VT (Logan (t* = 60)) (Thalamus, Test, mean): 14.9 mL/cm^3
k3/k4 (BPND) (2TCM-c) (Thalamus, Test, mean): 1.03
k3/k4 (2TCM) [1]: 6.72
k3/k4 (2TCM-c) [1]: 0.46 and 1.76 and 0.27
VT (2TCM) [2]: 11.61 ml/cm^3 and 16.36 ml/cm^3
k3/k4 (2TCM) [2]: 0.94
k3/k4 (2TCM-c) [2]: 1.41 and 1.09
ICC of 2TCM-c VT (White matter): 0.43
ICC of Logan (t* = 60) VT (White matter): 0.62
aTRV of 2TCM-c VT (White matter): 24%
aTRV of Logan (t* = 60) VT (White matter): 13%
VT (1TCM) (White matter, Retest, mean): 12.5 mL/cm^3
VT (2TCM) (White matter, Retest, mean): 12.6 mL/cm^3
VT (2TCM-c) (White matter, Retest, mean): 13.7 mL/cm^3
VT (Logan (t* = 60)) (White matter, Retest, mean): 13.6 mL/cm^3
k3/k4 (BPND) (2TCM-c) (White matter, Retest, mean): 0.83
VT (1TCM) (White matter, Test, mean): 12.3 mL/cm^3
VT (2TCM) (White matter, Test, mean): 14.0 mL/cm^3
VT (2TCM-c) (White matter, Test, mean): 13.8 mL/cm^3
VT (Logan (t* = 60)) (White matter, Test, mean): 13.9 mL/cm^3
k3/k4 (BPND) (2TCM-c) (White matter, Test, mean): 1.25
BPND lower compared to [^11C]UCB-J and other [^18F]-labelled SV2A radioligands (cynomolgus NHP): 3 to fourfold lower
VT lower compared to [^11C]UCB-J and other [^18F]-labelled SV2A radioligands (cynomolgus NHP): ~ 50%
free fraction in tissue fND (cynomolgus monkey, in vivo): 6.1 ± 1.3% and ~ 6%
tissue influx parameter K1 (grey matter regions, 2TCM and 2TCM-c): 0.37 ± 0.01 mL/cm^3/min
average VND (K1/k2 from 2TCM-c) (over all VOIs and animals): 7.89 ± 1.23 mL/cm^3
SMILES: O=C1C[C@H](c2cc(F)c(F)c(F)c2)CN1Cc1ccncc1[18F] [[^18F]UCB-H]
K1 (2TCM) (Thalamus, Test, individual NHP): 0.21 ml/cm^3 /min and 0.24 ml/cm^3 /min and 0.45 ml/cm^3 /min and 0.53 ml/cm^3 /min
K1 (2TCM-c) (Thalamus, Test, individual NHP): 0.20 ml/cm^3 /min and 0.25 ml/cm^3 /min and 0.48 ml/cm^3 /min and 0.54 ml/cm^3 /min
K1/k2 (2TCM) (Thalamus, Test, individual NHP): 11.03 ml/cm^3 and 7.51 ml/cm^3 and 12.45 ml/cm^3 and 12.69 ml/cm^3
K1/k2 (2TCM-c) (Thalamus, Test, individual NHP): 7.86 ml/cm^3 and 4.35 ml/cm^3 and 8.22 ml/cm^3 and 10.99 ml/cm^3
VT (1TCM) (Thalamus, Test, individual NHP): 12.88 ml/cm^3 and 10.42 ml/cm^3 and 16.04 ml/cm^3 and 14.02 ml/cm^3
VT (2TCM-c) (Thalamus, Test, individual NHP): 17.47 ml/cm^3 and 11.10 ml/cm^3 and 16.27 ml/cm^3 and 15.12 ml/cm^3
VT (Logan) (Thalamus, Test, individual NHP): 14.58 ml/cm3 and 12.30 ml/cm3 and 17.00 ml/cm3 and 15.59 ml/cm3
K1 (2TCM) [1]: 0.29 ml/cm^3 /min and 0.49 ml/cm^3 /min and 0.32 ml/cm^3 /min and 0.35 ml/cm^3 /min
K1 (2TCM-c) [1]: 0.30 ml/cm^3 /min and 0.44 ml/cm^3 /min and 0.32 ml/cm^3 /min and 0.35 ml/cm^3 /min
K1/k2 (2TCM) [1]: 1.66 ml/cm^3 and 10.04 ml/cm^3 and 11.74 ml/cm^3
K1/k2 (2TCM-c) [1]: 7.25 ml/cm^3 and 4.64 ml/cm^3 and 9.07 ml/cm^3 and 10.70 ml/cm^3
VT (1TCM) [1]: 10.59 ml/cm^3 and 12.63 ml/cm^3 and 13.80 ml/cm^3 and 12.91 ml/cm^3
VT (2TCM) [1]: 10.58 ml/cm^3 and 12.82 ml/cm^3 and 14.29 ml/cm^3
VT (2TCM-c) [1]: 10.59 ml/cm^3 and 12.79 ml/cm^3 and 18.23 ml/cm^3 and 13.35 ml/cm^3
VT (Logan) [1]: 11.11 ml/cm3 and 12.93 ml/cm3 and 16.97 ml/cm3 and 13.41 ml/cm3
K1 (2TCM) [2]: 0.17 ml/cm^3 /min and 0.19 ml/cm^3 /min and 0.41 ml/cm^3 /min
K1 (2TCM-c) [2]: 0.17 ml/cm^3 /min and 0.20 ml/cm^3 /min and 0.42 ml/cm^3 /min
K1/k2 (2TCM) [2]: 9.57 ml/cm^3 and 6.00 ml/cm^3 and 9.76 ml/cm^3 and 11.24 ml/cm^3
K1/k2 (2TCM-c) [2]: 7.86 ml/cm^3 and 4.35 ml/cm^3 and 8.22 ml/cm^3 and 10.99 ml/cm^3
VT (1TCM) [2]: 12.00 ml/cm^3 and 9.44 ml/cm^3 and 14.88 ml/cm^3 and 12.88 ml/cm^3
VT (2TCM-c) [2]: 15.44 ml/cm^3 and 10.47 ml/cm^3 and 15.61 ml/cm^3
VT (Logan) [2]: 14.19 ml/cm3 and 11.20 ml/cm3 and 15.99 ml/cm3 and 14.37 ml/cm3
